Test results from US20050009030A1, “Histone deacetylase: novel molecular target of neurotoxicity” (priority 2002, published 2005).

System: rat cerebellar granule cells
Assay: Excitotoxicity in rat cerebellar granule cells induced by NMDA/serine or kainate, measured by MTT test
Assay type: cell-based
Settings: excitotoxicity induced by 100 μM NMDA and 10 μM serine, or by 50 μM kainate; 30 to 40% toxicity by MTT tests
Procedure: For this example, rat cerebellar granule cells were placed in culture, according to techniques known to those skilled in the art. Excitotoxicity was induced in these cells by two types of treatment: firstly, by the joint administration of 100 μM NMDA (N-Methyl-D-aspartic acid) and 10 μM serine, and secondly by administration of 50 μM kainate. Under the experimental conditions adopted, 30 to 40% toxicity was observed and measured using MTT tests, known to those skilled in the art.

CC(/C=C/C(=O)NO)=C\[C@@H](C)C(=O)c1ccc(N(C)C)cc1 [trichostatin A]
Inhibition of excitotoxicity: Inhibition of excitotoxicity can be demonstrated
